Measured values as given in ChEMBL document CHEMBL1201862, “PubChem BioAssay data set” (2004).
The source made the active and inactive calls.

What was measured:
[1] = target: T1, Mannose-6-phosphate isomerase (Homo sapiens, UniProt P34949); test: human PMI inhibitors, high substrate, primary screen, biochemical, fluorescence intensity, high mannose 6-phosphate (AID 1220)
T1 sequence (P34949 whole entry): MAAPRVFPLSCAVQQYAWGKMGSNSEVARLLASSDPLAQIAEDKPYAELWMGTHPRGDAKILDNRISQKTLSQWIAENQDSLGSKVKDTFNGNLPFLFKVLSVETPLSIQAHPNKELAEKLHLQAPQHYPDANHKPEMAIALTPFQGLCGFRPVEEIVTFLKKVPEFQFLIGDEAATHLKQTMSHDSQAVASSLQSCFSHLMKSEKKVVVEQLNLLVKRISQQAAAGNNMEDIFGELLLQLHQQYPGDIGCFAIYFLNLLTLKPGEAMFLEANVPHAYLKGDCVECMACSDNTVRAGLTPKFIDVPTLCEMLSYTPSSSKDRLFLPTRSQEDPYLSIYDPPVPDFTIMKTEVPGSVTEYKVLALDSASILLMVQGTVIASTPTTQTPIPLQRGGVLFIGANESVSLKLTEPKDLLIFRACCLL

[2] = target: Induced myeloid leukemia cell differentiation protein Mcl-1 (Homo sapiens, UniProt Q07820); type: functional
[3] = target: Large T antigen (Simian virus 40, UniProt P03070); type: functional, Betapolyomavirus macacae;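 further: Confirmatory-stage PubChem screen for compounds that inhibit SV40 T antigen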
[4] = target: T2, Peroxisome proliferator-activated receptor gamma/Nuclear receptor coactivator 3 (Homo sapiens, UniProt P37231); test: (§1) TR-FRET dose response biochemical High Throughput Screening assay for agonists of the steroid receptor coactivator 3 (SRC-3) recruitment by the peroxisome proliferator-activated receptor gamma (PPAR gamma): non-selective agonists. [Related pubchem assays: 1301 (Confirmation screen.), 1048 (Primary screen.)]; type: functional
[5] = target: T3, Peroxisome proliferator-activated receptor gamma/Nuclear receptor coactivator 1 (Homo sapiens, UniProt P37231); test: as §1, with “1 (SRC-1)” for “3 (SRC-3)”, “assays (depositor defined):AID1300, AID1808, AID504735, AID631]” for “assays: 1301 (Confirmation screen.), 1048 (Primary screen.)]”; type: protein assay
[6] = target: T4, Peroxisome proliferator-activated receptor gamma/Nuclear receptor coactivator 2 (Homo sapiens, UniProt P37231); test: TR-FRET dose response biochemical High Throughput Screening assay for agonists of the steroid receptor coactivator 2 (SRC-2) recruitment by the peroxisome proliferator-activated receptor gamma (PPAR gamma): non-selective agonists. [Related pubchem assays: 1297, 1032 ]; type: functional
[7] = target: T3, Peroxisome proliferator-activated receptor gamma/Nuclear receptor coactivator 1; type: functional
[8] = target: T2, Peroxisome proliferator-activated receptor gamma/Nuclear receptor coactivator 3; type: functional
[9] = target: T4, Peroxisome proliferator-activated receptor gamma/Nuclear receptor coactivator 2; type: functional
[10] = target: Dual specificity tyrosine-phosphorylation-regulated kinase 1A (Rattus norvegicus, UniProt Q63470); type: biochemical, Homo sapiens
[11] = target: Prothrombin (Homo sapiens, UniProt P00734); test: Thrombin 1536 HTS Dose Response Confirmation. [Related pubchem assays: 1046 (Thrombin 1536 HTS; hits were confirmed in this assay)]; type: functional
[12] = target: Eukaryotic translation initiation factor 4E (Mus musculus, UniProt P63073); test: eIF4E–eIF4G protein interaction inhibitors, dose response, biochemical, TR-FRET (AID 855); type: functional;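 further: potency for disrupting eIF4E binding to eIF4GI seen as loss of FRET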
[13] = target: DNA dC->dU-editing enzyme APOBEC-3G (Homo sapiens, UniProt Q9HC16); test: Dose Response confirmation of small molecule APOBEC3G DNA Deaminase Inhibitors via a fluorescence-based single-stranded DNA deaminase assay. [Related pubchem assays (depositor defined):AID493012, AID493028]; type: functional
[14] = target: T5, Estrogen receptor (Homo sapiens, UniProt P03372);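 further: potency for inhibiting coactivator peptide recruitment to the receptor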
T5 sequence (P03372 whole entry): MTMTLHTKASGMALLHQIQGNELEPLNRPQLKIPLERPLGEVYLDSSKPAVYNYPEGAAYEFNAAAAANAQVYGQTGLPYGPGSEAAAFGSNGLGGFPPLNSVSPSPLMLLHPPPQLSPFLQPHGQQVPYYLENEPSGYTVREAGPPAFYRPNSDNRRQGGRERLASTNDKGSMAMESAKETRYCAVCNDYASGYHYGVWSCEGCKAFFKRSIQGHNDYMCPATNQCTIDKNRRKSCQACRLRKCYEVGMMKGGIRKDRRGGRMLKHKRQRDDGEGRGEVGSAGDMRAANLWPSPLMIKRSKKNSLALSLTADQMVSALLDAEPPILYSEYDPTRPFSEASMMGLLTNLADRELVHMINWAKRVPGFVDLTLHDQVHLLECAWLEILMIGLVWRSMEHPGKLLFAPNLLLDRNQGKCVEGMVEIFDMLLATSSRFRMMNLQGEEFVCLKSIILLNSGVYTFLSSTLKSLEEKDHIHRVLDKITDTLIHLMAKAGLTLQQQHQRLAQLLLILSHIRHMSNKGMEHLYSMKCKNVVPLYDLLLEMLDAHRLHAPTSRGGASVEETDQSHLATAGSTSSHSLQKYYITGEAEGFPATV

[15] = target: Voltage-dependent T-type calcium channel subunit alpha-1H (Homo sapiens, UniProt O95180); type: functional;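 further: channel activity triggered by adding a high calcium stimulation buffer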
[16] = system: Escherichia coli; test: microbe, parasite or virus in culture
[17] = target: T6, CAAX prenyl protease 2 (Saccharomyces cerevisiae S288c, UniProt Q03530); type: biochemical
T6 sequence (Q03530 whole entry): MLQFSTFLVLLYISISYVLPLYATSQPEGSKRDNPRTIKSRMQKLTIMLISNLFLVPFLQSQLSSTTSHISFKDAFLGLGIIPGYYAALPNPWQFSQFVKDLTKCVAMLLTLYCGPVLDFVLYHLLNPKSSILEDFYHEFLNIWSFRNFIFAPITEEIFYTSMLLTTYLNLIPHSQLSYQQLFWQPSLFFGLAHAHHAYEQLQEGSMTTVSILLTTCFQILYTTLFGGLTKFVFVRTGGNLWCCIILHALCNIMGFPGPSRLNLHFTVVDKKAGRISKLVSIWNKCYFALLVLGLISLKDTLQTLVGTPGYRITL

[18] = target: Estrogen receptor beta (Homo sapiens, UniProt Q92731);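 further: recombinant ER-beta bound to coactivator SRC1 peptide in presence of estradiol agonist; inhibitors block coactivator peptide binding and lower the FRET signal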
[19] = target: T7, Cytochrome P450 2C9 (Homo sapiens, UniProt P11712)
[20] = target: Cytochrome P450 3A4 (Homo sapiens, UniProt P08684);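 further: CYP3A4 tested as one member of a cytochrome P450 panel screen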
[21] = target: T7, Cytochrome P450 2C9; remark: listed apart in the source
[22] = target: T8, Alkaline phosphatase, tissue-nonspecific isozyme (Homo sapiens, UniProt P05186); test: human TNAP enzyme inhibitors, SAR follow-up, biochemical, luminescent, dose response (AID 1056)
T8 sequence (P05186 whole entry): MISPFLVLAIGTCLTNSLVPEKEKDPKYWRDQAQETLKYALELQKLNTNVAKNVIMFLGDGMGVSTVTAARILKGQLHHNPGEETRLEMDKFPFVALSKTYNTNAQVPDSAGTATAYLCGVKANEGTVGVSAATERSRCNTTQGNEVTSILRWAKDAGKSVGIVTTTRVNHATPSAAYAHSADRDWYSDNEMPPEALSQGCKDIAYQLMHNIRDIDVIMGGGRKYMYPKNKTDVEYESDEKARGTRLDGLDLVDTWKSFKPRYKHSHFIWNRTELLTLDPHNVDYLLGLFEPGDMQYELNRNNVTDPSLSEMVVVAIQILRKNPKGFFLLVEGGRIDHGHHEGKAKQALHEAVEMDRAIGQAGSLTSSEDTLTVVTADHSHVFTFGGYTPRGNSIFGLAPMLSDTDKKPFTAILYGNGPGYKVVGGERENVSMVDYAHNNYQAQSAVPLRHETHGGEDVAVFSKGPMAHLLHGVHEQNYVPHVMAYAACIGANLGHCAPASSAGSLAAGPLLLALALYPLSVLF

[23] = target: Glyceraldehyde-3-phosphate dehydrogenase (Homo sapiens, UniProt P04406)
[24] = target: Cytochrome P450 2C19 (Homo sapiens, UniProt P33261); test: Cytochrome panel assay with activity outcomes. Panel member name: p450-cyp2c19 Compounds with AC50 equal or less than 10 uM are considered active; type: functional; settings: read-out: AC50
[25] = target: FAD-linked sulfhydryl oxidase ALR (Homo sapiens, UniProt P55789); test: inhibitors of human ALR sulfhydryl oxidase, dose response, biochemical, H2O2 detection, luminescence, cherry-pick (AID 493248)
Sequence of FAD-linked sulfhydryl oxidase ALR (P55789 whole entry): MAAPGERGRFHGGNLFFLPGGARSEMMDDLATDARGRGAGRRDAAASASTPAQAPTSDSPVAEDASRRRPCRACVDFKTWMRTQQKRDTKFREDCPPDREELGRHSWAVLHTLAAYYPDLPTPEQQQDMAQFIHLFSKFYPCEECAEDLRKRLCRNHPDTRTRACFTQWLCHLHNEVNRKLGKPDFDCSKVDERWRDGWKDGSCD

Sequence of Glyceraldehyde-3-phosphate dehydrogenase (P04406 whole entry): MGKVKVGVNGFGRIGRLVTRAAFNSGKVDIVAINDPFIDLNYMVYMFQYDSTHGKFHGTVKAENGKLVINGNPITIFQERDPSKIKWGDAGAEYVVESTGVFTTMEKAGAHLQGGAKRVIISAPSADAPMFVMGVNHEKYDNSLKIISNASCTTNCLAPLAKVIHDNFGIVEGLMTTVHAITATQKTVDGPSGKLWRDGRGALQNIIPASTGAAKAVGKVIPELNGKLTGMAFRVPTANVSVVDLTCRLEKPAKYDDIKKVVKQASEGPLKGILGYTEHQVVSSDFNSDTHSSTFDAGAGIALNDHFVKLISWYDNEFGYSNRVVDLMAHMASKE
T2 sequence (P37231 whole entry): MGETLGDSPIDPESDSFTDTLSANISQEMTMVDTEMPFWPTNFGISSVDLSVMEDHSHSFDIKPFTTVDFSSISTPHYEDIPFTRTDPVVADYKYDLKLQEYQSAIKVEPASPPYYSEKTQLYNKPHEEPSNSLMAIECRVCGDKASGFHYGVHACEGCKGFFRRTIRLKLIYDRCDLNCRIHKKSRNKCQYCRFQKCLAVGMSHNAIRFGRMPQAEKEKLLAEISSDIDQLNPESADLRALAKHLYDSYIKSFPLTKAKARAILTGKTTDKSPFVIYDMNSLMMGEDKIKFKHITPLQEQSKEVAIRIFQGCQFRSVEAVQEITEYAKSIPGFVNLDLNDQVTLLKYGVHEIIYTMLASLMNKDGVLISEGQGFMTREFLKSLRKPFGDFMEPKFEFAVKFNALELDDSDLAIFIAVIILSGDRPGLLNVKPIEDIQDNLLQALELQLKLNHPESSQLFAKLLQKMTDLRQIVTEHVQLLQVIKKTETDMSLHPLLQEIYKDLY
T2 sequence (Q9Y6Q9 whole entry, further chain): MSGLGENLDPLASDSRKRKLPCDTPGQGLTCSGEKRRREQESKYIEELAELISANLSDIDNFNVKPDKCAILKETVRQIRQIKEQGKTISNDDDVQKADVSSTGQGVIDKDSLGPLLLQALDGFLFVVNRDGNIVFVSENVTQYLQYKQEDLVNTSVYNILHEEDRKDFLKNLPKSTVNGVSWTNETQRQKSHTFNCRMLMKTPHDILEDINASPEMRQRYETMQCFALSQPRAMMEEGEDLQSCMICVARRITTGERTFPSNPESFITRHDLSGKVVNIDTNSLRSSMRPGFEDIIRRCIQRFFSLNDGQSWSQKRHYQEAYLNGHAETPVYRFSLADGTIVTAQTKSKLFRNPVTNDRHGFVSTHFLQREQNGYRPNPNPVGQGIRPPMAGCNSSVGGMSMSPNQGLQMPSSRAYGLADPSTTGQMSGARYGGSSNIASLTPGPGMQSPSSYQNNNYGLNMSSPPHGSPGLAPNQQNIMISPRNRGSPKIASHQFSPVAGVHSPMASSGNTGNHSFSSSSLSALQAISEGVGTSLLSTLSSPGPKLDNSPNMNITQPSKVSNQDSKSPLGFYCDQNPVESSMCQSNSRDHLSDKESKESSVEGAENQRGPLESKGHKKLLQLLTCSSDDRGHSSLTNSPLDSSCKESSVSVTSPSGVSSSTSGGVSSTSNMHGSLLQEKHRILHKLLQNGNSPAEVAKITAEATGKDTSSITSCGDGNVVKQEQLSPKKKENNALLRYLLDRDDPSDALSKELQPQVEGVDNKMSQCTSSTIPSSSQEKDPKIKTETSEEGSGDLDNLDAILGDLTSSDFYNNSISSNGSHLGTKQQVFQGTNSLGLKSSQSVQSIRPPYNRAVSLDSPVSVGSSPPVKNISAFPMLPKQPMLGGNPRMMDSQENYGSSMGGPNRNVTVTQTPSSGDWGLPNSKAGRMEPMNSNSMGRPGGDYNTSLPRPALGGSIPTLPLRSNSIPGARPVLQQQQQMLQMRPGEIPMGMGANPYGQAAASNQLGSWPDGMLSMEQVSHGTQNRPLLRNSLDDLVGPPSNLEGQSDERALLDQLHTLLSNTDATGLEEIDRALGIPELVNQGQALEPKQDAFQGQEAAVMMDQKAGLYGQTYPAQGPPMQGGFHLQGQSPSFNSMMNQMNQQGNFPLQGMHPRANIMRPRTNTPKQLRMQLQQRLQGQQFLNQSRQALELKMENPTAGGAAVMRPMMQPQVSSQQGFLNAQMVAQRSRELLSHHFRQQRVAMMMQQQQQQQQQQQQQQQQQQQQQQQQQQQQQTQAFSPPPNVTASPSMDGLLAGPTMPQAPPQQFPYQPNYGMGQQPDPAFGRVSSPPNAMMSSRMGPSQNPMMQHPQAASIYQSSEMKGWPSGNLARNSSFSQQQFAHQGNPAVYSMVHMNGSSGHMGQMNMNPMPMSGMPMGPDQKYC
T4 sequence (P37231 whole entry): as the sequence (P37231 whole entry) above
T4 sequence (Q15596 whole entry, further chain): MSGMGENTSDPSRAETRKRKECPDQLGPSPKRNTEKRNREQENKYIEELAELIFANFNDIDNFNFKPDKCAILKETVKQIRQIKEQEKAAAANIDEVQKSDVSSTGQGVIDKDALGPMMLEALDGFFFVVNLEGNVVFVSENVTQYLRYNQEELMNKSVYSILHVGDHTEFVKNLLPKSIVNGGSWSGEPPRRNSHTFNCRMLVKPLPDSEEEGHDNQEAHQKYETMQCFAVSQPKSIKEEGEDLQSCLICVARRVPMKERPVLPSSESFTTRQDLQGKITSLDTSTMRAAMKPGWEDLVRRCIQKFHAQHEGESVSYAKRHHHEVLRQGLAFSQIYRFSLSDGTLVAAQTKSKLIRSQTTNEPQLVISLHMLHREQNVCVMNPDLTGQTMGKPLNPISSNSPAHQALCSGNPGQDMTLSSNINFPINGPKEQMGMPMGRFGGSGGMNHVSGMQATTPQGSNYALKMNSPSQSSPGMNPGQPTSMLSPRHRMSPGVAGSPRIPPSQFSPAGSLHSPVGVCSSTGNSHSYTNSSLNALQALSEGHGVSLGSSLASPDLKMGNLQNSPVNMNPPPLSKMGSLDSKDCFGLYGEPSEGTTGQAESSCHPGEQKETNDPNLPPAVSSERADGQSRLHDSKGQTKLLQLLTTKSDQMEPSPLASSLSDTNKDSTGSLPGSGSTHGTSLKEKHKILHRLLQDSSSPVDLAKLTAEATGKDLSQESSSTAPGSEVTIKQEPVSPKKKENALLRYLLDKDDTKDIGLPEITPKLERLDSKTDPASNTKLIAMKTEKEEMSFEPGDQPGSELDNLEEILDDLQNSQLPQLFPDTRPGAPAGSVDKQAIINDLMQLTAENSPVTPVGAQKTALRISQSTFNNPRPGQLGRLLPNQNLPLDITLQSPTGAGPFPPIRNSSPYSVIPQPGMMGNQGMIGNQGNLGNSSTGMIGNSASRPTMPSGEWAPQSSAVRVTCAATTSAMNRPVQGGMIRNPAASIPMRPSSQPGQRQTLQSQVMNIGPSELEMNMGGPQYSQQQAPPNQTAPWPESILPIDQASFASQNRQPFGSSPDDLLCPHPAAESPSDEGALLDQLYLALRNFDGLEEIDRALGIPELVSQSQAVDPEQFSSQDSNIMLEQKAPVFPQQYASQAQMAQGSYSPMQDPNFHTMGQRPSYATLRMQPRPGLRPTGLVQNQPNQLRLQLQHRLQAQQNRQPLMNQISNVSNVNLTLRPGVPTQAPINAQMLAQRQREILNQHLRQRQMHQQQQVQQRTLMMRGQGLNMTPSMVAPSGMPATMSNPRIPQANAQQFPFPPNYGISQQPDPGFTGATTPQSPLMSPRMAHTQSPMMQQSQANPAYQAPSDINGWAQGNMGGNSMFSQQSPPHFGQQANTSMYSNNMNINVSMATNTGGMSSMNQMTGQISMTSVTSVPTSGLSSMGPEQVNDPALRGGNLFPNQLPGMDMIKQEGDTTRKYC
Sequence of Estrogen receptor beta (Q92731 whole entry): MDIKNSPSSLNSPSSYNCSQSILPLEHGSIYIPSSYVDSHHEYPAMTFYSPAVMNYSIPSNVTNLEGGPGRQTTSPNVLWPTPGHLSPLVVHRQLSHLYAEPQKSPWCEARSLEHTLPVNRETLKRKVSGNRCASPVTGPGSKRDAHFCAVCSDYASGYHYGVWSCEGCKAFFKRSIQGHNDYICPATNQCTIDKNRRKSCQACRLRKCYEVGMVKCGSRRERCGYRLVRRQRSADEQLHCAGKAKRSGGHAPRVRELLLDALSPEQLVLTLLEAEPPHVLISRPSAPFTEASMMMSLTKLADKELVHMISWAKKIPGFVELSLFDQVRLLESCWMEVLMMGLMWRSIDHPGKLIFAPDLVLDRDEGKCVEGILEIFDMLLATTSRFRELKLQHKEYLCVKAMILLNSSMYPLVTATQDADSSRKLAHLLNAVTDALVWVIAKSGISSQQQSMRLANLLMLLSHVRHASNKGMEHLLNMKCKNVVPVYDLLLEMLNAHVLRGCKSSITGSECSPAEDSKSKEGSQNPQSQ

## COc1ccc(N2CCC(CNC(=O)Nc3cccc(OC)c3)C2)cc1 (stereo unspecified)
[1]
  IC50: > 50 µM (not active)
[2]
  IC50: 3.18 µM (not active)
[3]
  IC50: 43.3 µM (active)

## Cn1c(S)nnc1-c1sc2cc(C(F)(F)F)cnc2c1-c1cccs1
[4]
  EC50: 34 µM (not active)
[5]
  EC50: 6.65 µM (active)
[6]
  EC50: 12.6 µM (not active)

## COc1ccc(C(=O)C(C)(C)NO)cc1
[7]
  EC50: > 79.4 µM (not active)
[8]
  EC50: > 79.4 µM (not active)
[9]
  EC50: > 79.4 µM (not active)

## C[N+](C)(CCOc1ccccc1)Cc1ccccc1.O=C([O-])c1cc2ccccc2c(Br)c1O
[10]
  AC50: 0.517 µM (active)

## O=C(NCc1ccco1)c1cnc2ccc(S(=O)(=O)N3CCOCC3)cc2c1O
[11]
  IC50: 0.943 µM (active)

## Clc1ccc(Cl)c(-c2nn3c(COc4ccccc4)nnc3s2)c1
[12]
  IC50: > 64 µM (inactive)
[13]
  IC50: 37 µM (active)

## COc1ccc(-c2cc(-c3cccs3)c(C#N)c(SCC(=O)NCc3ccco3)n2)cc1
[14]
  IC50: > 50 µM (not active)

## CCCn1cc(SCC(=O)Nc2ccc3c(c2)OCO3)c2ccccc21
[15]
  EC50: 5.11 µM (active)

## O=C(Nc1ccccc1Cl)C1CCN(Cc2cnn(-c3ccccc3)c2-n2cccc2)CC1
[15]
  EC50: 2.74 µM (active)

## CN(CCCNC(=O)CSc1cc(=O)n(C)c2ccc(Cl)cc12)Cc1ccccc1
[4]
  EC50: > 79.4 µM (not active)
[5]
  EC50: > 79.4 µM (inactive)
[6]
  EC50: > 79.4 µM (not active)

## COc1cc(OC)c(C2CC(=O)N3CN(C)CSC3=C2C#N)cc1OC (stereo unspecified)
[1]
  IC50: 23.1 µM (active)
[3]
  IC50: 61.1 µM (active)

## CC(=O)Nc1cccc(NC(=O)c2cc3ccccc3o2)c1
[10]
  AC50: 11.5 µM (active)

## Cn1c(=O)cc(SCC(=O)NCCCN2CCN(c3ccccc3F)CC2)c2ccccc21
[4]
  EC50: > 79.4 µM (not active)
[5]
  EC50: > 79.4 µM (inactive)
[6]
  EC50: > 79.4 µM (not active)

## Cc1ccc(C)c(NC(=O)CCN2CCc3ccccc3C2)c1
[16]
  AC50: 58.7 µM (active)

## Cc1cc2cc(CCNC(=O)c3c(-c4ccccc4Cl)noc3C)c(=O)[nH]c2cc1C
[15]
  EC50: 4.77 µM (active)

## CN(C)CCN(C(=O)c1ccc2ccccc2c1)c1nc2ccc(F)cc2s1
[17]
  AC50: 6.44 µM (active)

## CCOc1ccc(C(=O)CCN2CCCCC2)cc1
[18]
  IC50: > 50 µM (not active)

## O=C(CSc1cccc(C(F)(F)F)c1)NC(=O)NCc1ccco1
[14]
  IC50: > 50 µM (not active)
[15]
  EC50: 1.67 µM (active)

## CCOC(=O)c1c(NC(=O)CSc2nnc(CNc3ccc(F)cc3)o2)sc(C(C)=O)c1C
[7]
  EC50: 54.3 µM (not active)
[8]
  EC50: > 79.4 µM (not active)
[9]
  EC50: 42.5 µM (not active)

## N#Cc1c(-c2ccccc2)cc(C2CC2)nc1SCC(=O)c1cccs1
[19]
  AC50: 44.7 nM (inconclusive)
[4]
  EC50: 20.6 µM (not active)
[20]
  AC50: 14.1 µM (inconclusive)
[5]
  EC50: 7.51 µM (active)
[6]
  EC50: 7.18 µM (active)

## CC(C(=O)NCc1ccc2c(c1)OCO2)N1c2cccc3cccc(c23)S1(=O)=O (stereo unspecified)
[21]
  AC50: inconclusive
[15]
  EC50: 9.35 µM (active)

## O=C(O)c1cc(-c2ccc(O)cc2)n[nH]1
[22]
  IC50: 14 µM (active)
[23]
  IC50: > 100 µM (not active)

## O=C(Oc1ccc2c(c1)OCC2=O)c1ccccc1
[18]
  IC50: > 50 µM (not active)

## COc1ccc(-c2cc(C(=O)O)n[nH]2)cc1
[22]
  IC50: 6.72 µM (active)
[23]
  IC50: > 100 µM (not active)

## COc1cccc(Cc2nnc(N3C(=O)[C@H]4CC=CC[C@H]4C3=O)[nH]2)c1
[22]
  IC50: 2.48 µM (active)
[23]
  IC50: > 100 µM (not active)

## O=C(NCc1ccccn1)c1cn(-c2ccccc2)nc1-c1ccc(Cl)cc1
[11]
  IC50: > 50 µM (not active)

## COc1ccc(/C=C/C(=O)OCc2cc(=O)n3c(n2)sc2ccccc23)cc1
[16]
  AC50: > 150 µM (inactive)

## COc1cccc(C(=O)n2c(SC)nc3cc4c(cc32)OCCO4)c1
[11]
  IC50: 0.0235 µM (active)
[24]
  AC50: 35.5 µM (inconclusive)

## O=C(NCc1ccccc1)c1[nH]cnc1C(=O)N1CCN(c2ccccc2)CC1
[25]
  AC50: 6.21 µM (active)
[16]
  AC50: 38.8 µM (active)

## Cc1ccc(C(=O)N2CC2C)cc1 (stereo unspecified)
[16]
  AC50: 25.4 µM (active)

## CCc1nc(/C=C2\C(=O)Nc3ccccc32)c[nH]1
[10]
  AC50: 10.5 µM (active)

## C(=N\c1cccc2c(/N=C/c3ccco3)cccc12)/c1ccco1
[1]
  IC50: > 50 µM (not active)

## COc1cccc(/C=c2/s/c(=C(\C#N)C(=O)N3CCOCC3)n(-c3ccccc3)c2=O)c1
[7]
  EC50: > 79.4 µM (not active)
[8]
  EC50: > 79.4 µM (not active)
[9]
  EC50: > 79.4 µM (not active)

## CC(CO)(CO)NCc1ccc(-c2ccccc2)cc1
[11]
  IC50: > 50 µM (not active)
